From patent US12612386B2, “Heteroaryl-triazole compounds as pesticides” (Bayer Aktiengesellschaft, priority 2020, dated 2026)

Columns and labels:
Assay type in all cases: in vivo
[1] = system: adult animals Blattella germanica strain PAULINIA; test: Blattella germanica test (BLTTGE surface treatment & contact assay); settings: 24 hours after contact, read-out: efficacy (mortality); for mortality at 4 mg/m2: surface concentration 4 mg/m^2, 30 min exposure; for mortality at 20 mg/m2: surface concentration 20 mg/m^2, 30 min exposure
Procedure: Blattella germanica Test (BLTTGE Surface Treatment & Contact Assay)
(§1) Solvent: Aceton+2000 ppm rapeseed oil methyl ester (RME)
In order to produce a sufficient, active ingredient containing solution it is necessary to solve the test compound in the solvent-mix (acetone at 2 mg/ml/RME 2000 ppm). This solution is pipetted onto a glazed tile and after evaporation of the acetone, adult animals of the species Blattella germanica strain PAULINIA are placed onto the dried surface. The exposure time is 30 minutes.
Mortality in percent (%) is determined 24 hours after contact of the insects to the treated surface. 100% mortality means that all tested insects are dead, whereas 0% means that no insect died.

[2] = system: adult mosquitoes Culex quinquefasciatus strain P00; test: Culex quinquefasciatus test (CULXFA surface treatment & contact assay); settings: 24 hours after contact, read-out: efficacy (mortality); for mortality at 4 mg/m2: surface concentration 4 mg/m^2, 30 min exposure; for mortality at 20 mg/m2: surface concentration 20 mg/m^2, 30 min exposure
Procedure: Culex quinquefasciatus Test (CULXFA Surface Treatment & Contact Assay)
as §1
(§2) This solution is pipetted onto a glazed tile and after evaporation of the acetone, adult mosquitoes of the species Culex quinquefasciatus strain P00 are placed onto the dried surface. The exposure time is 30 minutes. Mortality in percent (%) is determined 24 hours after contact of the insects to the treated surface. 100% mortality means that all tested insects are dead, whereas 0% means that no insect died.

[3] = system: adult flies Musca domestica strain WHO-N; test: Musca domestica test (MUSCDO surface treatment & contact assay); settings: 24 hours after contact, read-out: efficacy (mortality); for mortality at 4 mg/m2: surface concentration 4 mg/m^2, 30 min exposure; for mortality at 20 mg/m2: surface concentration 20 mg/m^2, 30 min exposure
Procedure: Musca domestica Test (MUSCDO Surface Treatment & Contact Assay)
as §1
as §2, with “flies” for “mosquitoes”, “Musca domestica” for “Culex quinquefasciatus”, “WHO-N” for “P00”

[4] = system: cattle tick larvae (Rhipicephalus microplus), strain Parkhurst, resistant against synthetic pyrethroids; test: Rhipicephalus (Boophilus) microplus in-vitro contact test, larval cattle tick; settings: 5 μg/cm^2 (=500 g/ha), after 48 hours
Outline: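 Compound in acetone coated onto the inner walls of glass tubes (900 ppm giving 5 μg/cm^2), solvent evaporated, then 20–50 larvae added and held at 27 °C, 85% RH. After 48 h, efficacy scored from negative geotactic behaviour as % dead or moribund larvae.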

[5] = system: adult mosquitoes Aedes aegypti strain MONHEIM; test: Aedes aegypti test (AEDSAE surface treatment & contact assay); settings: 24 hours after contact, read-out: efficacy (mortality); for mortality at 4 mg/m2: surface concentration 4 mg/m^2, 30 min exposure; for mortality at 20 mg/m2: surface concentration 20 mg/m^2, 30 min exposure
Procedure: Aedes aegypti Test (AEDSAE Surface Treatment & Contact Assay)
as §1
as §2, with “Aedes aegypti” for “Culex quinquefasciatus”, “MONHEIM” for “P00”

[6] = system: adult cat fleas (Ctenocephalides felis); test: Ctenocephalides felis in-vitro contact test, adult cat flea; settings: 5 μg/cm^2 (=500 g/ha), after 48 hours
Outline: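 Acetone solutions of compound were coated onto inner walls of glass tubes (900 ppm giving 5 μg/cm^2) and dried; 5-10 adult C. felis were then held 48 h at room temperature. Efficacy = % fleas dead or moribund, judged by inability to escape a 45-50° C heating plate within 5 min.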

[7] = system: fall armyworm larvae (Spodoptera frugiperda); test: whole plant or invertebrate; settings: 168 h; for Emax at 20 g/ha: SPODFR, 20 g ai/ha, 7 dat (Table 3), read-out: % Efficacy
Outline: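 Maize leaf sections sprayed with compound in acetone/DMF with alkylarylpolyglycol ether emulsifier diluted in water, then infested with fall armyworm larvae once dry. Mortality (%) scored after 7 days; 100% = all caterpillars killed.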

[8] = system: larvae of the banded cucumber beetle (Diabrotica balteata); test: Diabrotica balteata spray test; settings: 168 h, 100 g/ha (=32 μg/well), after 7 days, read-out: efficacy (seedling growth)
Outline: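 Germinated wheat seeds on agar (5 per well) were sprayed with compound formulated in acetone/DMF and diluted in water with 1000 ppm emulsifier. Each unit was then infested with 10–20 larvae. Efficacy % was scored after 7 days as seedling growth relative to an untreated, uninfested control (100% = normal growth).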

[9] = system: green peach aphid (Myzus persicae); test: Myzus persicae spray test (MYZUPE); settings: 120 h, 100 g/ha, after 5 days
Outline: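 Chinese cabbage leaf disks infested with all instars of Myzus persicae were sprayed with compound formulated in acetone/dimethylformamide and diluted in water with 1000 ppm alkylarylpolyglycol ether emulsifier. Percent mortality was scored after 5 days, 100% meaning all aphids killed.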

[10] = system: adult brown dog ticks (Rhipicephalus sanguineus); test: Rhipicephalus sanguineus in-vitro contact test, adult brown dog ticks; settings: 48 h, read-out: efficacy (ticks dead or moribund)
Outline: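 Acetone solution (900 ppm giving 5 μg/cm²) coated on inner walls of glass tubes; after drying, 5-10 adult ticks added and held at room temperature 48 h. Ticks then placed on 45-50 °C plate ≤5 min; those unable to climb away scored dead/moribund, efficacy as % affected.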

[11] = system: larvae of the southern green stink bug (Nezara viridula); test: whole plant or invertebrate; settings: 96 h
Outline: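 Compound in acetone/DMF was diluted in water with 1000 ppm alkylarylpolyglycol ether emulsifier. Barley plants were sprayed with it, then infested with Nezara viridula larvae. Mortality % was scored after 4 days (100% = all killed).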

[12] = system: brown planthopper (Nilaparvata lugens); test: Nilaparvata lugens spray test; settings: 96 h
Outline: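 Rice plants (Oryza sativa) sprayed with compound formulated in acetone/DMF with alkylarylpolyglycol ether emulsifier (1000 ppm in diluting water), then infested with planthoppers. Mortality (%) scored after 4 days; 100% = all insects killed, 0% = none killed.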

[13] = system: green peach aphid (Myzus persicae); test: whole plant or invertebrate; settings: 120 h, MYZUPE oral, 0.16 ppm, 5 dat (Table 3), read-out: % Efficacy
Procedure: Solvent: 100 parts by weight acetone
To produce a suitable preparation of active compound, 1 part by weight of active compound is mixed with the stated amount of solvent, and the concentrate is diluted with water to the desired concentration.
50 μL compound solution is filled in microtiter plates and 150 μL IPL41 insect medium (33%+15% sugar) is added to obtain a total volume of 200 μL per well. Afterwards the plates are sealed with parafilm through which a mixed population of the green peach aphid (Myzus persicae) can suck on the compound preparation.
After 5 days mortality in % is determined. 100% means all aphids have been killed and 0% means none of the aphids have been killed.
Myzus persicae—Oral Test (MYZUPE Oral)

C[C@H](NC(=O)c1cc(Br)cc(OC(F)(F)F)c1)c1ncnn1-c1cc(C(N)=O)ncn1 [I-21]
80 to 100%: mortality at 4 mg/m2 [1] | mortality at 20 mg/m2 [1] | mortality at 4 mg/m2 [2] | mortality at 4 mg/m2 [3] | mortality at 20 mg/m2 [3] | mortality at 4 mg/m2 [5] | mortality at 20 mg/m2 [5]
90%: mortality at 100 g/ha [9]
100%: efficacy (larvae dead or moribund) [4] | efficacy (fleas dead or moribund) [6] | mortality at 100 g/ha [7] | pest or weed control at 32 µg/disc, 100 g/ha [8] | pest or weed control at 5 µg/cm2, 500 g/ha [10] | mortality at 100 g/ha [11] | mortality at 500 g/ha [11]

CNC(=O)c1cc(-n2ncnc2[C@H](C)NC(=O)c2cc(Cl)cc(OC(F)(F)F)c2)ncn1 [I-73]
70%: mortality at 100 g/ha [9]
100%: efficacy (larvae dead or moribund) [4] | efficacy (fleas dead or moribund) [6] | mortality at 500 g/ha [12] | mortality at 100 g/ha [7] | pest or weed control at 32 µg/disc, 100 g/ha [8] | pest or weed control at 5 µg/cm2, 500 g/ha [10] | mortality at 500 g/ha [11]
80 to 100%: mortality at 4 mg/m2 [1] | mortality at 20 mg/m2 [1] | mortality at 4 mg/m2 [2] | mortality at 20 mg/m2 [2] | mortality at 4 mg/m2 [3] | mortality at 20 mg/m2 [3] | mortality at 4 mg/m2 [5] | mortality at 20 mg/m2 [5]

C[C@H](NC(=O)c1cc(Br)cc(OC(F)F)c1)c1ncnn1-c1cc(C(N)=O)ncn1 [I-51]
100%: efficacy (larvae dead or moribund) [4] | efficacy (fleas dead or moribund) [6] | mortality at 500 g/ha [12] | mortality at 100 g/ha [7] | pest or weed control at 32 µg/disc, 100 g/ha [8] | pest or weed control at 5 µg/cm2, 500 g/ha [10] | mortality at 100 g/ha [11] | mortality at 500 g/ha [11]
90%: mortality at 100 g/ha [9]
80 to 100%: mortality at 4 mg/m2 [1] | mortality at 20 mg/m2 [1] | mortality at 4 mg/m2 [2] | mortality at 20 mg/m2 [2] | mortality at 4 mg/m2 [3] | mortality at 20 mg/m2 [3] | mortality at 4 mg/m2 [5] | mortality at 20 mg/m2 [5]

C[C@H](NC(=O)c1cc(Cl)cc(OC(F)(F)F)c1)c1ncnn1-c1cc(C(N)=O)ncn1 [I-49]
100%: efficacy (larvae dead or moribund) [4] | efficacy (fleas dead or moribund) [6] | mortality at 500 g/ha [12] | mortality at 100 g/ha [7] | pest or weed control at 32 µg/disc, 100 g/ha [8] | mortality at 100 g/ha [9] | mortality at 100 g/ha [11] | mortality at 500 g/ha [11]
80%: pest or weed control at 5 µg/cm2, 500 g/ha [10]
80 to 100%: mortality at 4 mg/m2 [1] | mortality at 20 mg/m2 [1] | mortality at 4 mg/m2 [2] | mortality at 20 mg/m2 [2] | mortality at 4 mg/m2 [3] | mortality at 20 mg/m2 [3] | mortality at 4 mg/m2 [5] | mortality at 20 mg/m2 [5]

C[C@H](NC(=O)c1cc(Cl)cc(S(C)(=O)=O)c1)c1ncnn1-c1cc(C#N)ccn1 [I-148 Known from WO 2019197468, reference compound]
0%: Emax at 0.16 ppm [13]
33%: Emax at 20 g/ha [7]

CNC(=O)c1cc(-n2ncnc2[C@H](C)NC(=O)c2cc(Br)cc(OC(F)(F)F)c2)ncn1 [I-74]
90%: mortality at 100 g/ha [9]
80%: pest or weed control at 32 µg/disc, 100 g/ha [8]
80 to 100%: mortality at 4 mg/m2 [1] | mortality at 20 mg/m2 [1] | mortality at 4 mg/m2 [2] | mortality at 20 mg/m2 [2] | mortality at 4 mg/m2 [3] | mortality at 20 mg/m2 [3] | mortality at 4 mg/m2 [5] | mortality at 20 mg/m2 [5]
100%: efficacy (larvae dead or moribund) [4] | efficacy (fleas dead or moribund) [6] | mortality at 500 g/ha [12] | mortality at 100 g/ha [7] | pest or weed control at 5 µg/cm2, 500 g/ha [10] | mortality at 500 g/ha [11]

CNC(=O)c1cc(-n2ncnc2[C@H](C)NC(=O)c2cc(OC(F)(F)F)cc(S(=O)(=O)C(F)(F)F)c2)ncn1 [I-90]
90%: mortality at 500 g/ha [12]
80 to 100%: mortality at 20 mg/m2 [1] | mortality at 4 mg/m2 [2] | mortality at 20 mg/m2 [2] | mortality at 4 mg/m2 [3] | mortality at 20 mg/m2 [3] | mortality at 4 mg/m2 [5] | mortality at 20 mg/m2 [5]
100%: mortality at 100 g/ha [7] | pest or weed control at 32 µg/disc, 100 g/ha [8] | mortality at 100 g/ha [9] | mortality at 500 g/ha [11]

C[C@H](NC(=O)c1cc(Cl)cc(S(C)(=O)=O)c1)c1ncnn1-c1ccncn1 [I-146 Known from WO 2019197468, reference compound]
33%: Emax at 20 g/ha [7]
0%: Emax at 0.16 ppm [13]

C[C@H](NC(=O)c1cc(OC(F)(F)F)cc(OC(F)(F)F)c1)c1ncnn1-c1cc(C(N)=O)ncn1 [I-102]
80%: pest or weed control at 5 µg/cm2, 500 g/ha [10]
100%: efficacy (larvae dead or moribund) [4] | efficacy (fleas dead or moribund) [6] | mortality at 100 g/ha [7] | pest or weed control at 32 µg/disc, 100 g/ha [8] | mortality at 100 g/ha [9] | mortality at 500 g/ha [11]
80 to 100%: mortality at 4 mg/m2 [1] | mortality at 20 mg/m2 [1] | mortality at 4 mg/m2 [2] | mortality at 20 mg/m2 [2] | mortality at 4 mg/m2 [3] | mortality at 20 mg/m2 [3] | mortality at 4 mg/m2 [5] | mortality at 20 mg/m2 [5]
90%: mortality at 500 g/ha [12]
